The values below are quoted from earlier work in patent US20160128970A1, “COMPOSITION AND METHOD FOR TREATING NOSEBLEEDS” (BINYARCO, LLC, priority 2005, published 2016).

bismuth subgallate: the solubility in water result is “insoluble in water”.
